# What was measured:
# [1] = Solubility of the compound in simulated gastrointestinal fluid; format: physicochemical
# [2] = Half life in human S9 fraction; format: ADME
# [3] = Fraction unbound in human plasma; format: ADME, cell-free
# [4] = Oral bioavailability in Beagle dog at 5 mg/kg administered as suspension by LC-MS/MS analysis; format: ADME, organism-based, Canis lupus familiaris; conditions: in vivo
# [5] = Volume of distribution at steady state in Beagle dog at 1 mg/kg, iv and 5 mg/kg, po administered as suspension by LC-MS/MS analysis; format: ADME, organism-based, Canis lupus familiaris; conditions: in vivo, read-out: Vdss
# [6] = Apparent permeability in MDCK cells; format: ADME, cell-based, Canis lupus familiaris; conditions: dog
# [7] = Half life in dog S9 fraction; format: ADME, Canis lupus familiaris
# [8] = Oral bioavailability in Sprague-Dawley rat at 5 mg/kg administered as suspension by LC-MS/MS analysis; format: ADME, organism-based; conditions: in vivo
# [9] = Volume of distribution at steady state in Sprague-Dawley rat at 1 mg/kg, iv and 5 mg/kg, po administered as suspension by LC-MS/MS analysis; format: ADME, organism-based; conditions: in vivo, read-out: Vdss
# [10] = Clearance in cynomolgus monkey at 1 mg/kg, iv and 5 mg/kg, po administered as suspension by LC-MS/MS analysis; format: ADME, organism-based, Macaca fascicularis; conditions: in vivo
# [11] = Lipophilicity, log D of the compound at pH 7.4 by chromatographic analysis; format: physicochemical; conditions: buffer
# [12] = Half life in human hepatocytes; format: ADME, cell-based, Hepatocyte
# [13] = Half life in monkey S9 fraction; format: ADME, Macaca mulatta; conditions: rhesus monkey
# [14] = Fraction unbound in Beagle dog plasma at 1 mg/kg, iv and 5 mg/kg, po administered as suspension by equilibrium dialysis technique; format: ADME, organism-based, Canis lupus familiaris
# [15] = Half life in rat S9 fraction; format: ADME
# [16] = Fraction unbound in cynomolgus monkey plasma at 1 mg/kg, iv and 5 mg/kg, po administered as suspension by equilibrium dialysis technique; format: ADME, organism-based, Macaca fascicularis
# [17] = Clearance in Sprague-Dawley rat at 1 mg/kg, iv and 5 mg/kg, po administered as suspension by LC-MS/MS analysis; format: ADME, organism-based; conditions: in vivo
# [18] = Half life in cynomolgus monkey at 1 mg/kg, iv and 5 mg/kg, po administered as suspension by LC-MS/MS analysis; format: ADME, organism-based, Macaca fascicularis; conditions: in vivo
# [19] = Half life in Beagle dog at 1 mg/kg, iv and 5 mg/kg, po administered as suspension by LC-MS/MS analysis; format: ADME, organism-based, Canis lupus familiaris; conditions: in vivo
# [20] = Plasma concentration in rat at 5 mg/kg, po after 24 hrs; format: ADME, organism-based; set-up: dose 5 mg/kg, route oral
# [21] = Oral bioavailability in cynomolgus monkey at 5 mg/kg administered as suspension by LC-MS/MS analysis; format: ADME, organism-based, Macaca fascicularis; conditions: in vivo
# [22] = Volume of distribution at steady state in cynomolgus monkey at 1 mg/kg, iv and 5 mg/kg, po administered as suspension by LC-MS/MS analysis; format: ADME, organism-based, Macaca fascicularis; conditions: in vivo, read-out: Vdss
# [23] = Clearance in Beagle dog at 1 mg/kg, iv and 5 mg/kg, po administered as suspension by LC-MS/MS analysis; format: ADME, organism-based, Canis lupus familiaris; conditions: in vivo
# [24] = Half life in Sprague-Dawley rat at 1 mg/kg, iv and 5 mg/kg, po administered as suspension by LC-MS/MS analysis; format: ADME, organism-based; conditions: in vivo
# [25] = Fraction unbound in Sprague-Dawley rat plasma at 1 mg/kg, iv and 5 mg/kg, po administered as suspension by equilibrium dialysis technique; format: ADME, organism-based
# [26] = Half life in rat hepatocytes; format: ADME, cell-based, Hepatocyte
# [27] = test system: Human immunodeficiency virus 1; test: Antiviral activity against Human immunodeficiency virus 1 3B infected in human MT4 cells after 4 to 5 days by bioluminescence assay in presence of human serum relative to control; format: functional
# [28] = Fraction unbound in Sprague-Dawley rat plasma at 1 mg/kg, iv and 5 mg/kg, po administered as capsule by equilibrium dialysis technique; format: ADME, organism-based
# [29] = Volume of distribution at steady state in cynomolgus monkey at 1 mg/kg, iv and 5 mg/kg, po administered as capsule by LC-MS/MS analysis; format: ADME, organism-based, Macaca fascicularis; conditions: in vivo, read-out: Vdss
# [30] = Half life in Sprague-Dawley rat at 1 mg/kg, iv and 5 mg/kg, po administered as capsule by LC-MS/MS analysis; format: ADME, organism-based; conditions: in vivo
# [31] = Half life in cynomolgus monkey at 1 mg/kg, iv and 5 mg/kg, po administered as capsule by LC-MS/MS analysis; format: ADME, organism-based, Macaca fascicularis; conditions: in vivo
# [32] = Ratio of plasma concentration in rat to IC90 for pseudo Human immunodeficiency virus; format: ADME, cell-free
# [33] = test system: Human immunodeficiency virus 1; test: Antiviral activity against Human immunodeficiency virus 1 Ba-L infected human PBMC after 7 days by [methyl-3H]dTTP incorporation assay; format: functional, organism-based; conditions: 168 h
# [34] = Clearance in cynomolgus monkey at 1 mg/kg, iv and 5 mg/kg, po administered as capsule by LC-MS/MS analysis; format: ADME, organism-based, Macaca fascicularis; conditions: in vivo
# [35] = Oral bioavailability in Beagle dog at 5 mg/kg administered as capsule by LC-MS/MS analysis; format: ADME, organism-based, Canis lupus familiaris; conditions: in vivo
# [36] = molecular target: Human immunodeficiency virus type 1 integrase (Human immunodeficiency virus 1, UniProt Q7ZJM1); test: Inhibition of HIV-1 integrase strand transfer activity using [3H]-DNA as substrate preincubated for 60 mins prior to substrate addition measured after 25 to 45 mins
# Chain of Human immunodeficiency virus type 1 integrase (Q7ZJM1 whole entry): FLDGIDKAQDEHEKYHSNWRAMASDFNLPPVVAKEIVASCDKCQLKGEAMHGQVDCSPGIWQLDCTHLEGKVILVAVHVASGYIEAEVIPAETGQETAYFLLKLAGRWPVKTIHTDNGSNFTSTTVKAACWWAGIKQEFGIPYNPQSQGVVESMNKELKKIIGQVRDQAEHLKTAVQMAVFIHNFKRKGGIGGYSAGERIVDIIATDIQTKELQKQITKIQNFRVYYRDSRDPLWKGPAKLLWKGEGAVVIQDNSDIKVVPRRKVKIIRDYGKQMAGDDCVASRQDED
# [37] = test system: Human immunodeficiency virus; test: Antiviral activity against Human immunodeficiency virus harboring integrase Q148K mutant infected in human HeLa cells expressing CD4 after 2 days by beta galactosidase assay relative to wild type HIV; format: functional
# [38] = test system: Human immunodeficiency virus; test: Antiviral activity against pseudo Human immunodeficiency virus infected in HEK293T cells after 2 days in presence of human serum albumin; format: functional, organism-based; conditions: Human immunodeficiency virus 1, HEK-293T, 48 h
# [39] = Fraction unbound in Beagle dog plasma at 1 mg/kg, iv and 5 mg/kg, po administered as capsule by equilibrium dialysis technique; format: ADME, organism-based, Canis lupus familiaris
# [40] = Volume of distribution at steady state in Beagle dog at 1 mg/kg, iv and 5 mg/kg, po administered as capsule by LC-MS/MS analysis; format: ADME, organism-based, Canis lupus familiaris; conditions: in vivo, read-out: Vdss
# [41] = test system: Human immunodeficiency virus; test: Antiviral activity against pseudo Human immunodeficiency virus infected in HEK293T cells after 2 days; format: functional, organism-based; conditions: Human immunodeficiency virus 1, HEK-293T, 48 h
# [42] = test system: Human immunodeficiency virus 1; test: Antiviral activity against Human immunodeficiency virus 1 3B infected in human MT4 cells after 4 to 5 days by bioluminescence assay; format: functional, organism-based
# [43] = Fraction unbound in cynomolgus monkey plasma at 1 mg/kg, iv and 5 mg/kg, po administered as capsule by equilibrium dialysis technique; format: ADME, organism-based, Macaca fascicularis
# [44] = Clearance in Beagle dog at 1 mg/kg, iv and 5 mg/kg, po administered as capsule by LC-MS/MS analysis; format: ADME, organism-based, Canis lupus familiaris; conditions: in vivo
# [45] = test system: Human immunodeficiency virus; test: Ratio of IC50 for pseudo Human immunodeficiency virus to IC50 for pseudo Human immunodeficiency virus in presence of human serum albumin; format: functional
# [46] = Half life in Beagle dog at 1 mg/kg, iv and 5 mg/kg, po administered as capsule by LC-MS/MS analysis; format: ADME, organism-based, Canis lupus familiaris; conditions: in vivo
# [47] = Oral bioavailability in cynomolgus monkey at 5 mg/kg administered as capsule by LC-MS/MS analysis; format: ADME, organism-based, Macaca fascicularis; conditions: in vivo
structure (smiles),measurement,setting,value
C[C@@H]1CCO[C@H]2Cn3cc(C(=O)NCc4ccc(F)cc4F)c(=O)c([O-])c3C(=O)N12.[Na+] [DOLUTEGRAVIR SODIUM],solubility,[1],130 µg/mL
same,half-life,[2],> 3 h
same,fraction unbound,[3],0.007
same,bioavailability,[4],35%
same,Vd,[5],0.3 L/kg
same,Papp,[6],58.5 ×10⁻⁶ cm/s
same,half-life,[7],> 3 h
same,bioavailability,[8],34%
same,Vd,[9],0.1 L/kg
same,clearance,[10],2.1 mL/min/kg
same,chromatographic logD,[11],3.67
same,half-life,[12],> 3.67 h
same,half-life,[13],> 3 h
same,fraction unbound,[14],0.046
same,half-life,[15],> 3 h
same,fraction unbound,[16],0.009
same,clearance,[17],0.23 mL/min/kg
same,half-life,[18],6 h
same,half-life,[19],5.2 h
same,concentration at 24 h,[20],908 ng/mL
same,bioavailability,[21],25%
same,Vd,[22],0.3 L/kg
same,clearance,[23],2.2 mL/min/kg
same,half-life,[24],6.2 h
same,fraction unbound,[25],0.001
same,half-life,[26],> 3.67 h
C[C@H]1CO[C@@H]2Cn3cc(C(=O)NCc4ccc(F)cc4F)c(=O)c(O)c3C(=O)N12 [CABOTEGRAVIR],solubility,[1],42 µg/mL
same,fold change (FC),[27],408
same,fraction unbound,[28],< 0.001
same,Vd,[29],0.09 L/kg
same,half-life,[2],> 3 h
same,fraction unbound,[3],0.004
same,half-life,[30],> 18 h
same,half-life,[31],4 h
same,Papp,[6],42.5 ×10⁻⁶ cm/s
same,Ratio,[32],0.9
same,IC50,[33],0.2 nM
same,half-life,[7],> 3 h
same,clearance,[34],0.32 mL/min/kg
same,bioavailability,[35],8%
same,IC50,[36],3 nM
same,fold change (FC),[37],3.9
same,IC50,[38],30 nM
same,IC90,[38],0.0491 µg/mL
same,chromatographic logD,[11],3.49
same,half-life,[12],> 3.67 h
same,half-life,[13],> 3 h
same,fraction unbound,[39],0.007
same,half-life,[15],> 3 h
same,Vd,[40],0.14 L/kg
same,IC50,[41],0.5 nM
same,IC50,[42],1.3 nM
same,fraction unbound,[43],0.003
same,clearance,[44],0.34 mL/min/kg
same,concentration at 24 h,[20],9590 ng/mL
same,Ratio IC50,[45],60
same,half-life,[46],5.7 h
same,bioavailability,[47],6.2%
same,half-life,[26],> 3.67 h

# Source: ChEMBL document CHEMBL2401737 (J Med Chem, 2013)
